Data: patent US20220213030A1, “AMINOGUANIDINE HYDRAZONES AS RETROMER STABILIZERS USEFUL FOR TREATING NEUROLOGICAL DISEASES” (OSPEDALE SAN RAFFAELE SRL, priority 2019, published 2022)
“Also recorded” adds a separate entry of the source.

Columns and labels:
LC3 = assay: pHfluorin-LC3 autophagy assay in Neuro2a clone 7B11; assay type: cell-based, mouse; settings: BafilomycinA1 200 nM, Torin-1 250 nM, 48 hours
Description: Besides increasing the functionality of lysosomes we hypothesised that compound 2a could also enhance the autophagy system. Therefore we used a pHfluorin-LC3-based assay to monitor the autophagy process in living Neuro2a cells. We have established in our laboratory a Neuro2a stable cell clone (7B11) that expresses the Microtubule-associated protein 1A/1B-light chain 3 (LC3) coupled with the ph-sensitive GFP/phlourin.
Neuro2a-7B11 cells were incubated with increasing concentrations of compound 2a (0.1-100 μM) as well as with the control molecules Bafilomycin Al and Torin-1. After 48 hours the GFP/phluorin signal, which is ph-sensitive, was measured by flow cytometry and fold changes calculated over untreated cells.
Autophagy assay were done using a stable Neuro2a cell clone expressing the pHluorin-mKate2-tagged human LC3 plasmids, Cell clones were generated according our published methods (Mazzocchi 2016). Upon transfection, cells were selected by 400 μg/mL G418 Disulfate Salt Solution (Sigma-Aldrich, St. Louis, Mo.) and further cloned by limiting dilution. […] Neuro2a 7B11 cells were treated with Compound 2a (0.1-100 μM) for 48 hours then MFI levels of the pHfluorin were measured in living cells by flow cytometry.

TNFα = assay: LPS-mediated TNFα release in Raw 264.7 cells (ELISA); assay type: cell-based, murine; settings: 10 μM for 1 hour, then LPS 100 ng/ml, 4 hours
Source text: We observed that the molecular structure featuring compound 2a is reminiscent of the patented compound CNI-1493 (N,N′-bis [3,5 -bis [1(aminoiminomethyl) hydrazono]ethyl]phenyl]decanediamide tetrahydrochloride (CAS Reg. No. 164301-51-3)), (FIG. 16A). CNI-1493 inhibits macrophage activation in the animal model of Multiple Sclerosis producing a general amelioration of clinical and pathological outcomes of these mice (Martiney, Rajan et al. 1998). […] CNI-1493 suppresses the production of pro-inflammatory cytokines, belonging to the plethora of detrimental signals that accompany neurodegenerative processes in several disorders. […] We followed experimental procedures published by Bianchi and colleagues that describe the ability of CNI-1493 to blunt the production of this cytokine (Bianchi, Bloom et al. 1996). Cells were incubated with CNI-1493 (10 μM) or with compound 2a (10 μM) for 1 hour and then we added the LPS (100 ng/ml) to media. We next collected supernatants (4 hours after the LPS stimulation) form cells for the evaluation of TNFα levels.
Raw 264.7 cells (10^5/well) were treated with compound 2a, CNI-1493 or vehicle for 1 hour then we applied LPS (100 ng/ml) and supernatants were collected after 4 hours. […] Concentrations of TNFα were calculated according to a standard curve and expressed as nanograms per […]. […]

G93A mice = settings: mouse, in vivo; cited from earlier work
VPS35 = VPS35 (Mus musculus, UniProt Q9EQH3+Q9QZ88); assay: VPS35 levels in Neuro2a cells by Western blot (screening of amino guanidine hydrazones); assay type: cell-based; set-up: endogenous in cells; host or cells: Neuro2a; settings: 48 hours; for VPS35 levels (in words): compounds at 10 μM; for Mean fold changes (VPS35 levels normalized on β-Actin, over vehicle-treated cells): 10 μM, independent cultures n=3
Description: To functionally screen the majority of synthetized amino guanidine hydrazones of the invention and determine their effects on the retromer complex, we incubated Neuro2a cells with each synthetized molecule at the concentration of 10 μM.
The test was executed in triplicate for each tested compound of the invention, cells lysates were established after 48 hours' incubation, and levels of VPS35 were normalized on the housekeeping gene β-Actin by Western blot. We observed a preliminary SAR among the compounds.
Fold changes are calculated over normalized VPS35 levels measured in vehicle-treated cells.
Neuro2a cells were seeded on 12 wells multiwell at the concentration of 100 000 cells/well. Cells were incubated with each compound, including the standard R55, at 10 μM for 48 hours. Cells were then washed in PBS 1× and lysed in a buffer containing Tris-HCl 10 mM pH8, EDTA 1 mM pH8, NaCl 100 mM, NP40 1%, with protease inhibitor cocktail (Sigma) 1×. Using a cell scraper total lysates were collected from each well, quantified with BCA (BCA protein assay, Thermofisher). Five μg were resolved on precast 10% acrylamide gel (Biorad). Proteins were transferred to a PVDF membrane (Millipore) and western blot were performed using the following antibodies: goat αVPS35 (1:1000), mouse α-βActin (1:10000). Detection of proteins was obtained by a chemiluminescence detection kit (PerkinElmer).

[1] = tested on: TNFα, IL-1(3, IL-6 and macrophage inflammatory proteins 1α and 1β); settings: cited from earlier work
[2] = tested on: Neuro2a cells receiving H2O2; assay: H2O2-induced cell death in Neuro2a cells; assay type: cell-based, mouse; settings: compound 10 μM, H2O2 200 μM, 48 hours
Description: We tested the specificity of compound 2a in an assay based on H2O2-induced chromosomal breaks that lead to DNA fragmentation and cell death. In principle such DNA lesions are the cause of cell death according to a process that is not influenced by the retromer. Thus, our leads should not be able to modulate rates cell survival in Neuro2a cells receiving H2O2. We incubated Neuro2a cells with 200 μM of H2O2 along with compounds 2a, 2c, 2d and 2g (10 μM).
Cell survival experiments were run on 96-well plates using Cell Counting Kit-8 (CCK8) survival kit (96992-Sigma) according the manufacturer's recommendations. Compound 2a cytotoxicity was tested on Neuro2a cells receiving increasing amount of compound 2a (1, 10, 50, 100, 200, 500 and 1000 μM) for 48 hours.

| Structure (SMILES) | Mean fold changes (VPS35 levels normalized on β-Actin, over vehicle-treated cells) (VPS35) | other results |
| --- | --- | --- |
| CO/C1=C\C(C)=C\[C@@H](C)[C@@H](O)[C@@H](C)C/C(C)=C/C=C/[C@H](OC)[C@@H]([C@@H](C)[C@@H](O)[C@H](C)[C@@]2(O)C[C@@H](O)[C@H](C)[C@@H](C(C)C)O2)OC1=O [Bafilomycin A1, reference compound] | – | GFP/phluorin fluorescence, control molecules (LC3): augmented fluorescence |
| C/C(=N\N=C(N)N)c1cc(NC(=O)CCCCCCCCC(=O)Nc2cc(/C(C)=N/N=C(N)N)cc(/C(C)=N/N=C(N)N)c2)cc(/C(C)=N/N=C(N)N)c1.Cl.Cl.Cl.Cl [CNI-1493, reference compound] | – | TNFα levels in supernatants (TNFα): significantly inhibited the expression of this cytokine; also recorded: significantly blunted TNFα expression; onset of the disease and lifespan (G93A mice): delayed the onset of the disease and increased the lifespan of mice; VPS35 levels (in words) (VPS35): did not increased; VPS35 levels (in words) (VPS35; listed as CNI-1494): does not modulate VPS35; expression of pro-inflammatory cytokines [1]: inhibits the expression |
| N=C(N)NN=Cc1cccc(C=NNC(=N)N)c1Br [Compound 2b, 2-Bromo-1,3-bis-aminoguanidine phenyl hydrazone] | 1.300 | – |
| N=C(N)NN=Cc1ccc(Br)c(C=NNC(=N)N)c1 [Compound 2c, 4-Bromo-1,3-bis-amino guanidine phenyl hydrazone] | 1.617 | cell survival with H2O2 with or without compound [2]: did not result in any significant difference |
| N=C(N)NN=Cc1ccc(O)c(C=NNC(=N)N)c1 [Compound 2d, 1-Hydroxy-2,4-bis-aminoguanidine phenyl hydrazone] | 2.477 | cell survival with H2O2 with or without compound [2]: did not result in any significant difference |
| COc1ccc(C=NNC(=N)N)cc1C=NNC(=N)N [Compound 2e, 1-Methoxy-2,4-bis-amino guanidine phenyl hydrazone] | 2.070 | – |
| CCCCOc1ccc(C=NNC(=N)N)cc1C=NNC(=N)N [Compound 2f, 1-(n-Butoxy)-2,4-bis-aminoguanidine phenyl hydrazone] | 1.415 | – |
| Cc1cc(C=NNC(=N)N)cc(C=NNC(=N)N)c1 [Compound 2g, 5-Methyl-1,3-bis-aminoguanidine phenyl hydrazone] | 2.080 | cell survival with H2O2 with or without compound [2]: did not result in any significant difference |
| COc1cc(C=NNC(=N)N)cc(C=NNC(=N)N)c1 [Compound 2i, 1-Methoxy-3,5-bis-aminoguanidine phenyl hydrazone] | 1.310 | – |
| CC(=O)Nc1cc(C=NNC(=N)N)cc(C=NNC(=N)N)c1 [Compound 2l, 1-Acetamido-3,5-bis-aminoguanidine phenyl hydrazone] | 1.660 | – |
| Cc1ccc(C(=O)Nc2cc(C=NNC(=N)N)cc(C=NNC(=N)N)c2)cc1 [Compound 2m, 1-p-Tolylamido-3,5-bis-aminoguanidine phenyl hydrazone] | 0.974 | – |
| CS(=O)(=O)Nc1cc(C=NNC(=N)N)cc(C=NNC(=N)N)c1 [Compound 2n, 1-Methylsulfonamido-3,5-bis-aminoguanidine phenyl hydrazone] | 1.280 | – |
| Cc1ccc(S(=O)(=O)Nc2cc(C=NNC(=N)N)cc(C=NNC(=N)N)c2)cc1 [Compound 2o, 1-p-Tolylsulfonamido-3,5-bis-aminoguanidine phenyl hydrazone] | 1.501 | – |
| COC(=O)c1cc(C=NNC(=N)N)cc(C=NNC(=N)N)c1 [Compound 2p, 1-Carbomethoxy-3,5-bis-amino guanidine phenyl hydrazone] | 1.582 | – |
| N=C(N)NN=Cc1cc(C=NNC(=N)N)cc(C(=O)N2CCN(c3ccccc3)CC2)c1 [Compound 2q, 5-(N4-phenylpiperazinyl)carboxamido-3,5-bis-amino guanidine phenyl hydrazone] | 1.784 | – |
| N=C(N)NN=Cc1cc(C=NNC(=N)N)cc(C=NNC(=N)N)c1 [Compound 2r, 1-3,5-tris-amino guanidine phenyl hydrazone] | 1.154 | – |
| N=C(NN=Cc1cccc(C=NNC(=N)N2CCCC2)c1)N1CCCC1 [Compound 2v, 1,3-bis-(N3-pyrrolidinyl) guanidine phenyl hydrazone] | 1.978 | – |
| CCCCNC(=N)NN=Cc1cc(C=NNC(=N)NCCCC)cc(NC(=O)c2ccc(C)cc2)c1 [Compound 2w, 1-p-Tolylamido-3,5-bis-(N3-n-butylamino) guanidine phenyl hydrazone] | 0.625 | – |
| C(=NNc1nc2ccccc2[nH]1)c1cccc(C=NNc2nc3ccccc3[nH]2)c1 [Compound 2z, 1,3-Bis-(N2N3-benzimidazolidinyl) guanidine phenyl hydrazone] | 1.105 | – |
| C/C(=N\NC(=N)N)c1cccc(/C(C)=N/NC(=N)N)c1 [Compound (VIII), 1′,3′-Dimethyl-1,3-bis-aminoguanidine phenyl hydrazone, reference compound] | 0.600 | – |
| CCC(=O)N1CCN(c2ccc(-n3c(=O)ccc4cnc5ccc(-c6cnc7ccccc7c6)cc5c43)cc2C(F)(F)F)CC1 [Torin 1, reference compound] | – | GFP/phluorin fluorescence, control molecules (LC3): significantly dampened |
